Measurements: patent US20100048692A1, “Naphthofuranone Derivatives as Specific Inhibitors of Thymidylate Synthases” (priority 2006, published 2010)
Converted amounts (≈) assume the structure as drawn.

What was measured:
hDHFR (human DHFR) = biological target: T1, hDHFR (human DHFR) (Homo sapiens, UniProt P00374); test: Enzymatic inhibition assay (Ki), human DHFR; type: biochemical
T1 construct: made in house; host or cells: Escherichia coli chi2913
T1 sequence (P00374 1-187): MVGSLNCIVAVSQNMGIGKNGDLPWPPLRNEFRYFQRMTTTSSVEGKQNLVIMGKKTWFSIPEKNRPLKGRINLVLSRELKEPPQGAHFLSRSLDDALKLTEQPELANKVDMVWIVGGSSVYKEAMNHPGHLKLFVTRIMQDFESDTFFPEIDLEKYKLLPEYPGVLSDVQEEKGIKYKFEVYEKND
Protocol: The purified enzyme has been stored at −80° C. […] The enzymatic assays for the measurements of the Km consist in measuring the initial rate of the enzymatic reaction in presence of variable and increasing substrate (FAH2).
(§1) Enzymatic inhibition assay: The compounds hereby analyzed were previously dissolved in DMSO. The inhibitor concentrated solution was obtained by dissolving 2 mg of compound in 1 mL of DMSO. Next, solutions thus obtained were successively preserved and the […], and the stability of their working conditions was constantly controlled. The spectrophotometrical determinations of enzymatic reaction kinetics were carried out using a Parkin-Elmer λ16 spectrophotometer, provided with a multicell system which was maintained at the constant temperature of 20 C. degrees, with a HAAAKE F3C thermostatted bath.
The measurement of Ki (inhibition constant) was obtained through enzymatic inhibition essays carried out under stationary conditions. […] The enzyme is added finally. The assay aiming at controlling TS enzymatic activity is repeated at regular intervals. […] In this case inhibition constants were obtained through a non-linear regression analysis, which utilized of the least squared method, of the enzymatic reaction initial speeds relating to the inhibitor concentration; equation was the following: […]

[1] = system: S. epidermidis strains (multiresistant); test: Sensitivity assay and growth curve, multiresistant S. epidermidis strains; type: cell-based, Staphylococcus epidermidis
Protocol: (§2) The bacterial cultures were obtained by sowing bacteria in Mueller-Hinton (Difco) stirring at 37 C for 24 hours, and were then diluted, after reaching an appreciable level of exponential growth, using a growth plot in order to get a […] CFU/mL inoculum.
(§3) Following, the obtained cultures were put in contact with growing concentrations of the present compound. Furthermore, it was measured the minimal concentration inhibiting the growth (MIC) of each of these compounds. In Table 2 several MIC obtained by different bacterial pathogenic strains have been reported that were treated using compounds of the present invention and were also compared with those obtained through ciprofluoxacin (cpx).

[2] = system: multiresistant strains (clinical isolates); test: Sensitivity assay on 23 isolated multiresistant bacterial strains; type: cell-based; settings: multiresistant strains taken into consideration
Protocol: as §2, §3

VERO cells = test: Citotoxicity assay (MTT test on VERO cells); type: cell-based; settings: for MTT test, percentage of cellular growth: VERO cells, 24-hour incubation
Protocol: Aiming at evaluating the citotoxicity level, the compounds included in the present invention were submitted to the MTT assay, by using VERO cells on MEM soil/ground which was previously added with […]), penicillin (1%) (50 U/ml), streptomycine (50 μg/ml) e L-glutamine (1%) according to the Ishioka method (1988). Afterwards the cultures have been observed for 2 days through microscope at indirect light, and the living cells have been quantified in a Burker camera using the Tripan blue exclusion assay.
Later several increasing concentrations of the analyzed compound were added thereto and, after a 24-hour incubation period, the mitochondrial dehydrogenase activity was measured in the living cells (MTT assay) (Mosmann, T. 1983), by using a sample of the hereof compound which had not been previously as a comparison.

Citrobacter 224 = test: Sensitivity assay (MIC); type: cell-based
Protocol: (§4) The anti-bacterial properties of the compounds hereby described were evaluated towards: a) bacterial native strains comprehending gram-positive and gram-negative bacteria. The bacterial cultures were obtained by sowing bacteria in Mueller-Hinton (Difco) stirring at 37 C for 24 hours, and were then diluted, after reaching an appreciable level of exponential growth, using a growth plot in order to get a […] CFU/mL inoculum. Following, the obtained cultures were put in contact with growing concentrations of the present compound. Furthermore, it was measured the minimal concentration inhibiting the growth (MIC) of each of these compounds. In Table 2 several MIC obtained by different bacterial pathogenic strains have been reported that were treated using compounds of the present invention and were also compared with those obtained through ciprofluoxacin (cpx).

Listeria monocytogenes 7 = test: Sensitivity assay (MIC); type: cell-based
Protocol: as §4

Listeria monocytogenes 3 = test: Sensitivity assay (MIC); type: cell-based
Protocol: as §4

[3] = system: Staphylococcus aureus K28; test: Sensitivity assay (MIC); type: cell-based
Protocol: as §4

Streptococcus 42 = test: Sensitivity assay (MIC); type: cell-based
Protocol: as §4

[4] = system: Staphylococcus aureus 341; test: Sensitivity assay (MIC); type: cell-based
Protocol: as §4

Listeria monocytogenes 4 = test: Sensitivity assay (MIC); type: cell-based
Protocol: as §4

[5] = system: Enterococcus faecalis ATCCC 29212; test: Sensitivity assay (MIC); type: cell-based
Protocol: as §4

[6] = system: Staphylococcus haemolyticus ATCC 2997; test: Sensitivity assay (MIC); type: cell-based
Protocol: as §4

Listeria monocytogenes 6 = test: Sensitivity assay (MIC); type: cell-based
Protocol: as §4

[7] = system: Staphylococcus aureus 343; test: Sensitivity assay (MIC); type: cell-based
Protocol: as §4

[8] = system: Staphylococcus saprophiticus ATCC15305; test: Sensitivity assay (MIC); type: cell-based
Protocol: as §4

[9] = system: Staphylococcus aureus ATCC29213; test: Sensitivity assay (MIC); type: cell-based
Protocol: as §4

Escherichia coli 292 = test: Sensitivity assay (MIC); type: cell-based
Protocol: as §4

Listeria monocytogenes 8 = test: Sensitivity assay (MIC); type: cell-based
Protocol: as §4

[10] = system: Listeria monocytogenes ATCC 4428; test: Sensitivity assay (MIC); type: cell-based
Protocol: as §4

Listeria monocytogenes 5 = test: Sensitivity assay (MIC); type: cell-based
Protocol: as §4

Escherichia coli 256 = test: Sensitivity assay (MIC); type: cell-based
Protocol: as §4

CnTS = CnTS (Cryptococcus neoformans, UniProt P0CS12); type: biochemical
Chain of CnTS (P0CS12 whole entry): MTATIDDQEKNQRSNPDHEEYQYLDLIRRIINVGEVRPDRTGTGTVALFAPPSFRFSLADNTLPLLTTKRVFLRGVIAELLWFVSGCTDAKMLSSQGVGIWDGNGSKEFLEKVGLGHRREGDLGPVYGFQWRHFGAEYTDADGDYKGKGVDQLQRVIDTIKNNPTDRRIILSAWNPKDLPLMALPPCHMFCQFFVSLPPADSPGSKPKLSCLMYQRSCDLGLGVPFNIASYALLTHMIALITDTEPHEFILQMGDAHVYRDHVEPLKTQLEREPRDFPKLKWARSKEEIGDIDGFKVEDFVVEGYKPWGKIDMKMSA
Protocol: as §1
The elaboration of the data was carried out using Kaleidagraph 3.0; this software was provided by Macintosh (Adelbeck, Software Reading, Pa., 1989, version 2.3). The measurement of Ki (inhibition constant) was obtained through enzymatic inhibition essays carried out under stationary conditions. […] The enzyme is added finally. The assay aiming at controlling TS enzymatic activity is repeated at regular intervals. […] In this case inhibition constants were obtained through a non-linear regression analysis, which utilized of the least squared method, of the enzymatic reaction initial speeds relating to the inhibitor concentration; equation was the following:
Vi=Vmax*(1−([I])/([I]+(Ki*(1+([s]/Km))))), where
Vi=enzymatic reaction initial velocity, Vmax=enzymatic reaction maximum velocity, I=inhibitor concentration, Ki=inhibition constant, S=substrate concentration, Km=Michaelis-Menten.
Using this equation it is possible to obtain Ki making use of a minimal amount of experimental data. The specificity index relating to each of the compounds (Bio. Med. Chem. ) refers to the relation between KihTS/Kiother enzyme.

`O=C1OC(c2cc(Br)c(O)c(Br)c2)(c2cc(Br)c(O)c(Br)c2)c2ccc3ccccc3c21` [Compound 5, 3,3-bis-(3,5-bromo-4-hydroxyphenyl)-3H-naphtho(1,2-c)furan-1-one] was tested, and the Ki (hDHFR (human DHFR)) was 69 µM, the “SSI hTS vs hDHFR” value (hDHFR (human DHFR)) was 0.3 and the “inhibitory effect on S. epidermidis growth (FIG. 1)” value ([1]; 0.1 mg/L) was “No inhibitory effect”. The “antibacterial activity on S. epidermidis growth (FIG. 1)” value ([1]; 0.5 mg/L, after a 8 hours period) was “antibacterial activity becomes evident”, the “antibacterial effect on S. epidermidis growth (FIG. 1)” value ([1]; 1 mg/L) was “best result” and the “concentration to which the strain is sensitive” value ([1]; S. epidemidis strain resistant to 17 antibiotics) was 0.5 mg/L. For the same compound, the “lowest MIC on S. epidermidis strains” value ([1]; multiresistant S. epidermidis strains) was 0.5 to 1 mg/L, the “activity on multiresistant strains” value [2] was “active on the major part of the multiresistant strains” and the citotoxicity (VERO cells; 1 mg/L, VERO cells (Table 3)) was “not to be citotoxic”. The “MTT test, percentage of cellular growth” value (VERO cells; 1.56 mg/L) was 100 percentage, the “MTT test, percentage of cellular growth” value (VERO cells; 3.12 mg/L) was 100 percentage and the “MTT test, percentage of cellular growth” value (VERO cells; 6.25 mg/L) was 100 percentage. The “MTT test, percentage of cellular growth” value (VERO cells; 12.05 mg/L) was 100 percentage, the “MTT test, percentage of cellular growth” value (VERO cells; 25 mg/L) was 100 percentage and the “MTT test, percentage of cellular growth” value (VERO cells; 50 mg/L) was >100 percentage. For the same compound, the “Minimum inhibitory concentration (MIC)” value (Citrobacter 224) was >25 µg/mL, the “Minimum inhibitory concentration (MIC)” value (Listeria monocytogenes 7) was 2.5 µg/mL (≈ 3.66 µM) and the “Minimum inhibitory concentration (MIC)” value (Listeria monocytogenes 3) was 2.5 µg/mL (≈ 3.66 µM). For the same compound, the “Minimum inhibitory concentration (MIC)” value [3] was 2.5 µg/mL (≈ 3.66 µM), the “Minimum inhibitory concentration (MIC)” value (Streptococcus 42) was 2.5 µg/mL (≈ 3.66 µM) and the “Minimum inhibitory concentration (MIC)” value [4] was 2.5 µg/mL (≈ 3.66 µM). The “Minimum inhibitory concentration (MIC)” value (Listeria monocytogenes 4) was 2.5 µg/mL (≈ 3.66 µM), the “Minimum inhibitory concentration (MIC)” value [5] was 2.5 µg/mL (≈ 3.66 µM) and the “Minimum inhibitory concentration (MIC)” value [6] was 2.5 µg/mL (≈ 3.66 µM). The “Minimum inhibitory concentration (MIC)” value (Listeria monocytogenes 6) was 2.5 µg/mL (≈ 3.66 µM), the “Minimum inhibitory concentration (MIC)” value [7] was 2.5 µg/mL (≈ 3.66 µM) and the “Minimum inhibitory concentration (MIC)” value [8] was 1 µg/mL (≈ 1.46 µM). The “Minimum inhibitory concentration (MIC)” value [9] was 2.5 µg/mL (≈ 3.66 µM), the “Minimum inhibitory concentration (MIC)” value (Escherichia coli 292) was >25 µg/mL and the “Minimum inhibitory concentration (MIC)” value (Listeria monocytogenes 8) was 2.5 µg/mL (≈ 3.66 µM). For the same compound, the “Minimum inhibitory concentration (MIC)” value [10] was 2.5 µg/mL (≈ 3.66 µM), the “Minimum inhibitory concentration (MIC)” value (Listeria monocytogenes 5) was 2.5 µg/mL (≈ 3.66 µM) and the “Minimum inhibitory concentration (MIC)” value (Escherichia coli 256) was >25 µg/mL. It also gave a Ki (CnTS) of 13 µM.
